Assay results from paper PMC9312206, “Atto488-Agitoxin 2—A Fluorescent Ligand with Increased Selectivity for Kv1.3 Channel Binding Site” (Bioengineering, 2022).
Entries after “also recorded” stand apart in the source; their conditions may differ. Where two headings read alike, the source gives them in different places.

Assays:
Kv1.3 channel [1] = details: read-out: Kd, electrophysiological studies, cited from earlier work
[2] = test system: KcsA–Kv1.3 (Kv1.3 binding site); assay: Competitive binding: displacement of A-AgTx2 from KcsA–Kv1.3 on E. coli spheroplasts; details: 1 h at 37 °C, pH 8.0; for displacement of A-AgTx2 from complexes with KcsA–Kv1.3 by peptide blockers (in words): tested AgTx2 0.4–50 nM, KTx1 0.04–2.5 nM, ChTx 10 nM, averaged over 3 independent experiments; for Kd: competition with A-AgTx2 10 nM, Kap = IC50/(1 + [L]/[Kd]), mean ± SEM, three independent measurements, read-out: apparent dissociation constant (Kap)
Protocol: (§1) E. coli spheroplasts expressing KcsA or chimeric KcsA–Kv1.x (x = 1, 3, 6) channels were prepared according to the previously developed protocol. Briefly, E. coli BL21 (DE3) cells (Novagen, Merck, Darmstadt, Germany), transformed either with the pET28a-KcsA, the pET28a-KcsA–Kv1.1, or the pET28a-KcsA–Kv1.3 plasmid, were cultivated in a minimal M9 medium at 37 °C up to OD560 = 0.8 optical units per cm (o.u./cm), induced with 50 μM isopropyl β-D-1-thiogalactopyranoside, and further grown at 37 °C for 20 h. The cells transformed with pET28a-KcsA–Kv1.6 were grown at 25 °C for 28 h after induction. To prepare the spheroplasts, cells were harvested by centrifugation (5000× g, 10 min, 4 °C), incubated in buffer A (10 mM Tris–HCl, pH 8.0, 0.5 M sucrose) containing lysozyme (20 μg/mL) for 7 min on ice, then diluted twofold with buffer B (10 mM Tris–HCl, pH 8.0, 0.3 mM ethylenediamine tetraacetic acid) and further incubated for 20 min. Finally, the spheroplasts (OD560 ≈ 0.5 o.u./cm) were stabilized by the addition of MgCl2 (10 mM) and stored at 4 °C.
(§2) All the experiments were performed in a buffer containing 50 mM Tris-HCl (pH 8.0), 4 mM KCl, 50 mM NaCl, 10 mM MgCl2, 0.3 mM EDTA, 250 mM sucrose, and 0.1% bovine serum albumin. In the binding experiments, the spheroplasts (1000 cells/μL) were incubated with different concentrations of A-AgTx2 (0.16–20 or 100 nM) or AgTx2-GFP (4 or 50 nM) for 1 h at 37 °C. In the competitive binding experiments, the spheroplasts were incubated with A-AgTx2 (10 nM) and with one of the following compounds for 1 h at 37 °C: AgTx2 (0.4–50 nM), KTx1 (0.04–2.5 nM), ChTx (10 nM), ScyTx (5 µM), tetraethylammonium (TEA, 10 mM).
(§3) After incubation with ligands, the spheroplasts were placed in a 12-well flexiPERM silicon chamber (Perbio, Aalst, Belgium) attached to a thin (0.15 mm) cover glass and were centrifuged at 200× g for 5 min to immobilize the spheroplasts to a cover glass. The microscopy studies were carried out with a laser scanning confocal microscope LSM 710 (Zeiss, Oberkochen, Germany) using the α Plan-Apochromat 100×/1.46 oil immersion objective. Fluorescence of A-AgTx2 and AgTx2-GFP was excited at the 488 nm wavelength and recorded in the 495–590 nm range, at a 0.25 μm lateral and ca. 1.5 μm axial resolution. Image J software (National Institutes of Health, Bethesda, MD, USA) was used to treat the images and define the fluorescence intensity of the ligand bound to each measured spheroplast and the average fluorescence intensity Ia of the bound fluorescent ligand (mean ± SEM, n = 130–230 cells per point).
The apparent dissociation constant (Kap) of non-labeled ligands (AgTx2, KTx1) was calculated using the data of competition binding experiments according to the procedure described elsewhere with the following equation: Kap = IC50/(1 + [L]/[Kd])(2) where [L] is a concentration of A-AgTx2 (10 nM), IC50 is the concentration of a non-labeled ligand that displaces 50% of A-AgTx2 from the complex with KcsA–Kv1.3. Kap was introduced instead of Kd to emphasize an indirect method (the competitive binding experiment) for its determination.
(§4) The Kd and Kap values from three independent measurements were averaged and presented as mean ± SEM.

KcsA–Kv1.3 = details: estimated previously; ref [15]; read-out: apparent dissociation constant, KcsA–Kv1.3-bearing spheroplasts and GFP-tagged AgTx2 ligand; cited from earlier work
Protocol: Since the bioengineering system based on KcsA–Kv1.3-bearing spheroplasts is suitable for the quantitative analysis of the affinity of unlabeled pore blockers by measuring the competitive binding of the fluorescent ligand and the compound under study, we tested A-AgTx2 in such an analysis (Figure 4C). […] The concentrations of AgTx2 and KTx1 displacing 50% of A-AgTx2, which were determined from the measured dependences, made it possible to calculate the apparent dis ...

KCa2.3 channel = details: ref [18]; cited from earlier work
KCa2.2 channel = details: ref [18]; cited from earlier work
Kv1.3 channel [3] = details: cited from earlier work
Source text: High-affinity and genetically ... || Interactions of A-AgTx2 with the Kv1.3 binding site were further characterized using known small organic molecule (TEA) and peptide blockers (ChTx, KTx1, AgTx2) of the Kv1.3 channel.

KCa2.1 channel = details: ref [18]; cited from earlier work
Kv1.6 channel = details: cited from earlier work
Source text: (§5) Differences between two labeled derivatives include the position of a label (carboxytetramehylrhodamine was located at the C-terminus of AgTx2 [11]), the number of charges, and the total charge at the labels. Atto488 bears two negatively and one positively charged groups (Figure 1C), while carboxytetramehylrhodamine bears one negative charge and one positive charge. It can be s ... || (+ 1 further places)

Kv1.1 channel = details: cited from earlier work
Source text: as §5

Shaker K^+ channel = details: ref [1]; cited from earlier work
Source text: The toxin contains a triple-stranded antiparallel β-sheet with two outer strands—S1 (Val2-Cys8) and S2 (Arg24-Met29)—and the central strand S3 (Lys32—Thr ...

[4] = test system: KcsA–Kv1.3 (Kv1.3 binding site); assay: Direct binding of fluorescent ligand to hybrid KcsA–Kv1.3 on E. coli spheroplasts, confocal microscopy
Protocol: as §1, with “°C. To obtain spheroplasts from non-transformed cells, E. coli BL21 (DE3) cells were subjected to similar growth, induction, and treatment procedures.” for “°C.”
as §2, §3
The dissociation constants (Kd) of complexes between A-AgTx2 and KcsA–Kv1.3 were defined by fitting the experimental dependencies of Ia onto the concentration L of A-AgTx2 with the following equation:Ia ([L]) = Ias [L]/(Kd + [L])(1) where Ias is the Ia value when the A-AgTx2 binding is saturated.
as §4

[5] = test system: KcsA–Kv1.1 (Kv1.1 binding site); assay: Direct binding of fluorescent ligand to hybrid KcsA–Kv1.1 on E. coli spheroplasts, confocal microscopy; details: A-AgTx2 100 nM, 1 h at 37 °C, pH 8.0
Protocol: (§6) E. coli spheroplasts expressing KcsA or chimeric KcsA–Kv1.x (x = 1, 3, 6) channels were prepared according to the previously developed protocol. Briefly, E. coli BL21 (DE3) cells (Novagen, Merck, Darmstadt, Germany), transformed either with the pET28a-KcsA, the pET28a-KcsA–Kv1.1, or the pET28a-KcsA–Kv1.3 plasmid, were cultivated in a minimal M9 medium at 37 °C up to OD560 = 0.8 optical units per cm (o.u./cm), induced with 50 μM isopropyl β-D-1-thiogalactopyranoside, and further grown at 37 °C for 20 h. The cells transformed with pET28a-KcsA–Kv1.6 were grown at 25 °C for 28 h after induction. […]
as §3, with “The microscopy studies were carried out with a laser scanning confocal microscope LSM 710 (Zeiss, Oberkochen, Germany) using the α Plan-Apochromat 100×/1.46 oil immersion objective.” left out

[6] = test system: spheroplasts prepared from non-transformed cells; assay: Direct binding of fluorescent ligand to control spheroplasts from non-transformed cells (plasma membrane); parameters: species or system E. coli BL21 (DE3); details: A-AgTx2 100 nM
Protocol: as §6
as §3, with “The microscopy studies were carried out with a laser scanning confocal microscope LSM 710 (Zeiss, Oberkochen, Germany) using the α Plan-Apochromat 100×/1.46 oil immersion objective.” left out

KcsA = assay: Direct binding of fluorescent ligand to control spheroplasts expressing KcsA; details: A-AgTx2 100 nM
Protocol: as §6
as §3, with “The microscopy studies were carried out with a laser scanning confocal microscope LSM 710 (Zeiss, Oberkochen, Germany) using the α Plan-Apochromat 100×/1.46 oil immersion objective.” left out

[7] = test system: KcsA–Kv1.6 (Kv1.6 binding site); assay: Direct binding of fluorescent ligand to hybrid KcsA–Kv1.6 on E. coli spheroplasts, confocal microscopy; details: A-AgTx2 100 nM, 1 h at 37 °C, pH 8.0
Protocol: as §6
as §3, with “The microscopy studies were carried out with a laser scanning confocal microscope LSM 710 (Zeiss, Oberkochen, Germany) using the α Plan-Apochromat 100×/1.46 oil immersion objective.” left out

Molecule: kaliotoxin-1 [KTx1]
- Kd (Kv1.3 channel [1]; ref [20]): 0.1 nM
- displacement of A-AgTx2 from complexes with KcsA–Kv1.3 by peptide blockers (in words) ([2]; A-AgTx2 10 nM): displaced A-AgTx2 from the complexes with KcsA–Kv1.3 at nanomolar concentrations
- Kd [2]: 0.06 ± 0.02 nM
- Kd (KcsA–Kv1.3): 0.1 nM

Molecule: scyllatoxin (AFCNLRMCQLSCRSLGLLGKCIGDKCECVKH; UniProt P16341 1-31, looked up) [ScyTx]
- block of KCa2.3 (in words) (KCa2.3 channel): blocks the KCa2.1, KCa2.2, and KCa2.3 channels
- block of KCa2.2 (in words) (KCa2.2 channel): blocks the KCa2.1, KCa2.2, and KCa2.3 channels
- interaction with Kv1.3 (in words) (Kv1.3 channel [3]; stated as known, ref [18]): does not interact with Kv1.3
- block of KCa2.1 (in words) (KCa2.1 channel): blocks the KCa2.1, KCa2.2, and KCa2.3 channels
- displacement of A-AgTx2 from complexes with KcsA–Kv1.3 by control peptide (in words) ([2]; A-AgTx2 10 nM, ScyTx 5 µM): did not disturb the complexes of A-AgTx2 with KcsA–Kv1.3

Molecule: agitoxin 2 [AgTx2]
- inhibition of Kv1.3 (in words) (Kv1.3 channel [3]; mammalian channel, ref [1]): high-affinity inhibitor
- inhibition of Kv1.6 (in words) (Kv1.6 channel; mammalian channel, ref [1]): high-affinity inhibitor
- inhibition of Kv1.1 (in words) (Kv1.1 channel; mammalian channel, ref [1]): high-affinity inhibitor
- inhibition of Shaker K^+ channel (in words) (Shaker K^+ channel): high-affinity inhibitor
- Kd (Kv1.3 channel [1]; ref [19]): 2 nM
- displacement of A-AgTx2 from complexes with KcsA–Kv1.3 by peptide blockers (in words) ([2]; A-AgTx2 10 nM): displaced A-AgTx2 from the complexes with KcsA–Kv1.3 at nanomolar concentrations
- Kd [2]: 0.54 ± 0.11 nM
- Kd (KcsA–Kv1.3): 0.23 nM

Molecule: Atto488-agitoxin 2 [A-AgTx2]
- affinity for the Kv1.3 binding site compared to the unlabeled AgTx2 (in words) [4]: decreased as compared to the unlabeled AgTx2
- binding of A-AgTx2 to spheroplasts expressing KcsA–Kv1.3 (in words) ([4]; A-AgTx2 20 nM, 1 h at 37 °C, pH 8.0): effectively binds to spheroplasts expressing KcsA–Kv1.3
- Kd ([4]; A-AgTx2 0.16–20 nM, 1 h at 37 °C, pH 8.0, 4 mM KCl, 50 mM NaCl, 0.1% BSA, mean ± SEM, n = 3, read-out: dissociation constant (Kd) of complexes with KcsA–Kv1.3): 3.9 ± 0.2 nM
- intensity of fluorescence detected from KcsA–Kv1.3-bearing spheroplasts relative to control spheroplasts (higher than) ([4]; A-AgTx2, control: spheroplasts expressing KcsA or not expressing heterologous channels, difference preserved with controls at fivefold higher A-AgTx2 concentration): fifty
- selectivity toward Kv1.3 as compared to the Kv1.1 and Kv1.6 binding sites (in words) ([4]; in contrast to non-modified AgTx2): considerably increased selectivity toward Kv1.3
- binding of A-AgTx2 to KcsA–Kv1.1 / Kv1.1 binding site (in words) [5]: lose affinity for the Kv1.1 and Kv1.6 binding sites; also recorded: does not stain spheroplasts presenting KcsA–Kv1.1 or KcsA–Kv1.6; also recorded: inability of A-AgTx2 to interact with the Kv1.1 and Kv1.6 binding sites
- non-specific ligand binding to plasma membrane (in words) [6]: very low
- non-specific ligand binding to the KcsA channel scaffold (in words) (KcsA): very low
- binding of A-AgTx2 to KcsA–Kv1.6 / Kv1.6 binding site (in words) [7]: lose affinity for the Kv1.1 and Kv1.6 binding sites; also recorded: does not stain spheroplasts presenting KcsA–Kv1.1 or KcsA–Kv1.6; also recorded: inability of A-AgTx2 to interact with the Kv1.1 and Kv1.6 binding sites

Molecule: R-AgTx2: AgTx2 labeled with carboxytetramethylrhodamine at Lys38
- affinity for Kv1.3 binding site (in words) (Kv1.3 channel [3]; ref [11],[12],[13]): nanomolar affinity
- affinity for Kv1.6 binding site (in words) (Kv1.6 channel; ref [11],[12],[13]): nanomolar affinity
- affinity for Kv1.1 binding site (in words) (Kv1.1 channel; ref [11],[12],[13]): nanomolar affinity

Molecule: CC[N+](CC)(CC)CC [TEA, tetraethylammonium]
- displacement of A-AgTx2 from complexes with KcsA–Kv1.3 by TEA (in words) ([2]; A-AgTx2 10 nM, TEA 10 mM): accomplished this at millimolar concentrations

Molecule: charybdotoxin [ChTx]
- displacement of A-AgTx2 from complexes with KcsA–Kv1.3 by peptide blockers (in words) ([2]; A-AgTx2 10 nM): displaced A-AgTx2 from the complexes with KcsA–Kv1.3 at nanomolar concentrations
